# Test results published in patent US20220213174A1, “IVIG TREATMENTS FOR SUDDEN SONSORINEURAL HEARING LOSS” (InnoMed Technologies, Inc., priority 2021, published 2022).
# Key:
# [1] = system: Hearing Loss, including Sudden Sensorineural Healing Loss; conditions: prednisolone 60 mg per day for 5 days then reduced, or 50 mg per day for 10 days; cited from earlier work
# [2] = system: Sudden Sensorineural Healing Loss; assay: Example 1: treatment of a patient suffering from hearing loss; assay type: in vivo, human; conditions: person; 60 mg/day prednisone therapy alone; two weeks
# Experimental: The patient, a person was diagnosed by their doctor after claiming they are suffering from unexplained hearing loss. The patient's doctor diagnosed the patient as suffering from Sudden Sensorineural Healing Loss. […] Two weeks after administration, the patient is co-administered a single dose of IVIG at 2 g/kg and 60 mg prednisone and Sudden Sensorineural Healing Loss related symptoms […].
# [3] = system: Sudden Sensorineural Hearing Loss; assay: Example 2: treatment of a patient suffering from hearing loss; assay type: in vivo, human; conditions: person; 60 mg/day prednisone therapy alone for a month
# Experimental: The patient, a person is diagnosed by their doctor as suffering from Sudden Sensorineural Hearing Loss. […] The patient is then administered IVIG at 2 g/kg and 60 mg prednisone. Within three weeks, the Sudden Sensorineural Hearing Loss is resolved by about 80%. The patient is then administered a second dose of IVIG at 2 g/kg and 60 mg. prednisone. Within two weeks, the patient is resolved by about 95%. A week later, the patient's Sudden Sensorineural Hearing Loss symptoms have disappeared and the patient presents as normal.
Molecule,outcome and time to complete recovery in patients with Hearing Loss [1],reduction in the symptoms they suffer [2],resolution of Sudden Sensorineural Hearing Loss [3]
C[C@]12C=CC(=O)C=C1CC[C@@H]1[C@@H]2[C@@H](O)C[C@@]2(C)[C@H]1CC[C@]2(O)C(=O)CO [prednisolone],improves outcome,,
C[C@]12C=CC(=O)C=C1CC[C@@H]1[C@@H]2C(=O)C[C@@]2(C)[C@H]1CC[C@]2(O)C(=O)CO [prednisone],,no reduction,did not resolve
methylprednisone,improves outcome,,
